According to patent publication US20150119327A1, “DRUG SCREENING PLATFORM FOR RETT SYNDROME” (THE REGENTS OF THE UNIVERSITY OF CALIFORNIA, priority 2012, published 2015):

What was measured:
TRPC6 = target: T1, TRPC6 (Homo sapiens, UniProt Q9Y210); conditions: cited from earlier work
T1 sequence (Q9Y210 1-931): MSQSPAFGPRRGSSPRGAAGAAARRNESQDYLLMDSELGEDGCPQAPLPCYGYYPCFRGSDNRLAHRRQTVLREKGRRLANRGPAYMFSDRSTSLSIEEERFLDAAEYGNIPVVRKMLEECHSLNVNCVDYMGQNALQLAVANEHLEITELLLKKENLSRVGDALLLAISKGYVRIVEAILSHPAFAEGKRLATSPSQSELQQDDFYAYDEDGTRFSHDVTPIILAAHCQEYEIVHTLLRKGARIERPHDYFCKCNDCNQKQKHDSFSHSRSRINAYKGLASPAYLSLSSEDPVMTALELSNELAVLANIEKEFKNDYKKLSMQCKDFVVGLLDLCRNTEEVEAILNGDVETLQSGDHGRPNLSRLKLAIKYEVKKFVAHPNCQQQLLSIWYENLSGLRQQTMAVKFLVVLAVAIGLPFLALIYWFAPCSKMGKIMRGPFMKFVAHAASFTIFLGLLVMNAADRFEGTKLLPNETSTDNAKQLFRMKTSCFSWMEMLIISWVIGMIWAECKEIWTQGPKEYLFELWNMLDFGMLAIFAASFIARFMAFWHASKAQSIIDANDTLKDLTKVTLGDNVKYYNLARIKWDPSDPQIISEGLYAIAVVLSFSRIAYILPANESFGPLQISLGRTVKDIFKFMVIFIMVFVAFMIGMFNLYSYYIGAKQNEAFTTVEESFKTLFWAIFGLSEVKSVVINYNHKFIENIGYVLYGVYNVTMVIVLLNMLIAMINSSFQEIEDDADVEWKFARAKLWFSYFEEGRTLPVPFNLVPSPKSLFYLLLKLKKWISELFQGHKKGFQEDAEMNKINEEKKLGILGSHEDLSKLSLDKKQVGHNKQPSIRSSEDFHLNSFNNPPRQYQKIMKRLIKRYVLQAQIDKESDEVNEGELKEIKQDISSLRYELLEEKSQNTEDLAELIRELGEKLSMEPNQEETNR

Na^+ current = format: cell-based, human
K^+ current = experiment: Whole-cell patch clamp recording of K+ current in iPSC-derived neuron; format: cell-based, human; conditions: 20 mM
Protocol: Whole-cell patch clamp recordings were performed from cells cultured in the absence of astrocytes after approximately 6 weeks of differentiation. Before recordings, the growth media was removed and replaced with a bath solution comprised of (in mM): 130 NaCl, 3 KCl, 1 CaCl2, 1 MgCl2, HEPES, and 10 glucose (pH 7.4) at room temperature (22-24° C.). Electrodes for whole cell recording were pulled on a Flaming/Brown micropipette puller (Model P-87, Sutter Instrument, Novato, Calif.) from filamented borosilicate capillary glass (1.2 mm OD, 0.69 mm ID, World Precision Instruments, Sarasota, Fla.). The electrodes were fire-polished, and resistances were typically 2-5 MΩ for voltage-clamp experiments and 7-9 MΩ for current-clamp experiments. The pipette solution contained (in mM): 138 KCl, 0.2 CaCl2, 1 MgCl2, 10 HEPES (Na^+ salt), and 10 EGTA, (pH 7.4). The osmolarity of all solutions was adjusted to 290 mOsM. All chemicals were purchased from Sigma-Aldrich (St. Louis, Mo.) except MgCl2 (J.T. Baker, Phillipsburg, N.J.). Current traces in voltage clamp were leak-subtracted. Liquid junction potentials were nulled for each individual cell with the Axopatch 1C amplifier (Molecular Devises, Sunnyvale, Calif.).

TRPC6-mutant neurons = experiment: VGLUT1 puncta / glutamatergic synapse number in TRPC6-mutant neurons (rescue); format: cell-based, human; conditions: 10 ηg/mL for two weeks
Protocol: Neuronal tracing was performed on neurons for which that the shortest dendrite was at least three-times longer than the cell soma diameter, using a semi-automatic ImageJ plug-in (NeuroJ). Spines and VGLUT1 puncta were quantified after three-dimensional reconstruction of z-stack confocal images. Only neurons with spines were scored. Pictures were taken randomly for each individual and from two different experiments, using at least two different clones. Quantification was done blindly to the genotype of the cells. All experiments were performed with independent clones and different controls. For the rescue experiments, 10 ηg/mL of IGF1 (Peprotech) was added to neuronal cultures for 2 weeks.

human neurons [1] = conditions: cited from earlier work
human neurons [2] = experiment: Synapse quantification by Odyssey in-cell western in 96- or 24-well plates; format: cell-based; conditions: preliminary data
Source text: Fibroblasts from patients are reprogrammed to a pluripotent state and further differentiated into neuro progenitor cells (NPCs). These NPCs can be expanded in appropriated culture conditions and, under the right signals, induced to differentiated into postmitotic neurons (see schematic; FIG. 11). Several adjustments were done on the neuronal differentiation protocol, reducing by half the time needed to generate neurons from NPCs. Such adjustments include specific factors and cell manipulations at different stages of the protocol. At this stage, disease neurons can reveal a phenotype that is related to the mutations on the MeCP2 gene. We focused on synapse quantification. Instead of manual synapse counting, we are using an Odyssey machine that can estimate the number of synapses by detecting specific wavelengths in a 96- or 24-well plates (see FIG. 11). […] Alternatively, we are using specific synaptic tools to visualize synaptogeneses in real time that could be detected by any time-lapse fluorescence microscope.

RTT-like symptoms = conditions: mouse model; cited from earlier work

**Q.** For O=C(O)c1ccccc1Nc1cccc(C(F)(F)F)c1 [FFA, flufenamic acid], which “currents through TRPC6 channel” value (TRPC6) is on record?
**A.** increases the amplitude

**Q.** Which TRPC6 activation (TRPC6) does the source give for CC(C)=CCC[C@]1(C)[C@@H](CC=C(C)C)C[C@@]2(CC=C(C)C)C(=O)[C@]1(C(=O)C(C)C)C(=O)C(CC=C(C)C)=C2O [Hyperforin, hyperforin] here?
**A.** specifically activates

**Q.** With NC1=N[C@H](O)[C@H]2[C@H]3O[C@]4(O)O[C@@H]([C@@H](O)[C@@]2(N1)[C@@H]4O)[C@]3(O)CO [Tetrodotoxin (TTX), Tetrodotoxin] as the molecule, how does the “Na^+ current” value (Na^+ current) read?
**A.** blocked

**Q.** Which “K^+ current” value (K^+ current) does the source give for CC[N+](CC)(CC)CC [tetraethalammonium (TEA), tetraethalammonium] here?
**A.** blocked

**Q.** What does the source list for “IGF-1: Insulin-like growth factor 1 (IGF-1), also referred to as somatomedin C”?
**A.** glutamatergic synapse number (TRPC6-mutant neurons): increase; RTT-like symptoms (human neurons [1]): reversal; synapse number (human neurons [1]): increase; synapse number estimate (Odyssey), response to drug (human neurons [2]): small alterations; RTT-like symptoms (RTT-like symptoms): reversal
